How the values were obtained:
[1] = system: T-cell; experiment: IL-2 secretion from T-cells stimulated with anti-CD3 antibody alone (Biological Example 2); type: cell-based; conditions: 1 μM compound, primary human total T-cells, read-out: IL-2 secretion, Anti-CD3 stimulation, fold change over baseline
[2] = system: T-cell; experiment: IL-2 secretion from T-cells co-stimulated with anti-CD3 and anti-CD28 antibody (Biological Example 2); type: cell-based, human; conditions: Homo sapiens, T-cell, primary human total T-cells, baseline = anti-CD3/anti-CD28 stimulated cells without inhibitor, read-out: IL-2 secretion, Anti-CD3/Anti-CD28 stimulation, fold change over baseline; for fold induction at 0.3 µM: 0.3 μM compound; for fold induction at 1 µM: 1 μM compound
Outline: (§1)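 Values are fold-change over baseline: readings (IL-2 release, CD25 staining) from inhibitor-treated T-cells divided against untreated cells […]. No detailed procedure stated.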

[3] = system: T-cell; experiment: CD25 cell surface staining on T-cells stimulated with anti-CD3 antibody alone (Biological Example 2); type: cell-based; conditions: 1 μM compound, primary human total T-cells, baseline = anti-CD3/anti-CD28 stimulated cells without inhibitor, read-out: CD25 staining, Anti-CD3 stimulation, fold change over baseline
[4] = system: T-cell; experiment: CD25 cell surface staining on T-cells co-stimulated with anti-CD3 and anti-CD28 antibody (Biological Example 2); type: cell-based, human; conditions: Homo sapiens, T-cell, primary human total T-cells, baseline = anti-CD3/anti-CD28 stimulated cells without inhibitor, read-out: CD25 staining, Anti-CD3/Anti-CD28 stimulation, fold change over baseline; for fold induction at 0.3 µM: 0.3 μM compound; for fold induction at 1 µM: 1 μM compound
Outline: as §1

[5] = biological target: T1, Cbl-b (Homo sapiens, UniProt Q13191); experiment: Cbl-b inhibition assay (Cbl-b activity assay, FRET, Biological Example 1; 100 mM NaCl, 60 nM Src kinase); type: biochemical; conditions: upper bound stated in text lists; read-out: IC50 values in the Cbl-b inhibition assay of Biological Example 1
T1 sequence (Q13191 36-427): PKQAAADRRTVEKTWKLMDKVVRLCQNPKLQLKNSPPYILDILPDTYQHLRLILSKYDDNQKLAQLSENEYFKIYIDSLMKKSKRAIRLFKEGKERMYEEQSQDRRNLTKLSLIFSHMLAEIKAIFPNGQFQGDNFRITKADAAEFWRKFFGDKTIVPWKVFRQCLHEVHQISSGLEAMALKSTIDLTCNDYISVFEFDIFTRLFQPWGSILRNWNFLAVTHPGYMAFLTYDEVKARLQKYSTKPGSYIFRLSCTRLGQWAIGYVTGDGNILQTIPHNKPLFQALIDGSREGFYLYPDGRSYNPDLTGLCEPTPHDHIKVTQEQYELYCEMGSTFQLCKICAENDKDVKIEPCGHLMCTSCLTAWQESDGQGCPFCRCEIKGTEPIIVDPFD
Outline: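 Inhibitor activity is measured as reduced terbium-to-fluorescein FRET between streptavidin-terbium on biotinylated Cbl-b and Bodipy-fluorescein ubiquitin carried by an irreversible UbcH5B-Ub conjugate, binding of which depends on Src phosphorylation of Cbl-b.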

[6] = biological target: T1, Cbl-b; experiment: Cbl-b activity assay (Cbl-b inhibition assay), TR-FRET of Cbl-b interaction with UbcH5B-Ub; type: biochemical; conditions: assay buffer with 100 mM NaCl, 60 nM Src kinase; read-out: Cbl-b activity IC50
Outline: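 Compound-treated Cbl-b was incubated 1.5 h with Src kinase (60 nM final; 30 nM for asterisked values, which also used 50 mM instead of 100 mM NaCl), 1 mM ATP and 5 mM MgCl2. Binding to fluorescent Ub-loaded UbcH5B (C85K mutant) was then read by TR-FRET after 1 h more.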

Compound | fold induction at 1 µM [1] | fold induction at 0.3 µM [2] | fold induction at 1 µM [2] | fold induction at 1 µM [3] | fold induction at 0.3 µM [4] | fold induction at 1 µM [4] | IC50 [5] | IC50 [6]
CC(c1cc(C(=O)Nc2cccc(C3(Cc4nncn4C)COC3)c2)nc(C2CC2)n1)N1CC(F)C1 (stereo not drawn) [Compound 538, 2-cyclopropyl-6-(1-(3-fluoroazetidin-1-yl)ethyl)-N-(3-(3-((4-methyl-4H-1,2,4-triazol-3-yl)methyl)oxetan-3-yl)phenyl)pyrimidine-4-carboxamide] | 0.101 to 0.15 | 1.01 to 2.5 | 2.51 to 5 | 0.801 to 1 | 1.01 to 1.3 | 1.31 to 1.5 | ≤ 0.1 µM | < 0.1 µM
CC(O)c1cc2c(c(C(F)(F)F)c1)CN(c1cccc(C3(Cc4nncn4C)COC3)c1)C2=O (stereo not drawn) [Compound 540, 6-(l-hydroxyethyl)-2-(3-(3-((4-methyl-4H-1,2,4-triazol-3-yl)methyl)oxetan-3-yl)phenyl)-4-(trifluoromethyl)isoindolin-1-one] | 0.151 to 0.2 | 1.01 to 2.5 | 2.51 to 5 | > 1 | 1.01 to 1.3 | 1.01 to 1.3 | ≤ 0.1 µM | < 0.1 µM
C[C@H](c1cc2c(c(C(F)(F)F)c1)CN(c1cccc(C3(Cc4nncn4C)COC3)c1)C2=O)N1C[C@H]2C[C@H]2C1 [Compound 541b, 6-((1R)-1-(3-azabicyclo[3.1.0]hexan-3-yl)ethyl)-2-(3-(3-((4-methyl-4H-1,2,4-triazol-3-yl)methyl)oxetan-3-yl)phenyl)-4-(trifluoromethyl)isoindolin-1-one] | > 0.201 | > 7.5 | > 7.5 | > 1 | 1.31 to 1.5 | 1.31 to 1.5 | ≤ 0.1 µM | < 0.1 µM
C[C@@H](c1cc2c(c(C(F)(F)F)c1)CN(c1cccc(C3(Cc4nncn4C)COC3)c1)C2=O)N1CC(C)(F)C1 [Compound 543a, (S)-6-(1-(3-fluoro-3-methylazetidin-1-yl)ethyl)-2-(3-(3-((4-methyl-4H-1,2,4-triazol-3-yl)methyl)oxetan-3-yl)phenyl)-4-(trifluoromethyl)isoindolin-1-one] | > 0.201 | 2.51 to 5 | > 7.5 | > 1 | 1.31 to 1.5 | 1.51 to 1.75 | ≤ 0.1 µM | < 0.1 µM
C[C@H](c1cc2c(c(C(F)(F)F)c1)CN(c1cccc(C3(Cc4nncn4C)COC3)c1)C2=O)N1CC(C)(F)C1 [Compound 543b, (R)-6-(1-(3-fluoro-3-methylazetidin-1-yl)ethyl)-2-(3-(3-((4-methyl-4H-1,2,4-triazol-3-yl)methyl)oxetan-3-yl)phenyl)-4-(trifluoromethyl)isoindolin-1-one] | > 0.201 | 5 to 7.5 | > 7.5 | > 1 | 1.51 to 1.75 | 1.51 to 1.75 | ≤ 0.1 µM | < 0.1 µM
Cn1cnnc1CC1(c2cccc(N3Cc4c(cc(C(F)(F)C(=O)O)cc4C(F)(F)F)C3=O)c2)COC1 [Example 544, 2,2-difluoro-2-(2-(3-(3-((4-methyl-4H-1,2,4-triazol-3-yl)methyl)oxetan-3-yl)phenyl)-3-oxo-7-(trifluoromethyl)isoindolin-5-yl)acetic acid] | < 0.05 | 1.01 to 2.5 | 1.01 to 2.5 | 0.601 to 0.8 | 1.01 to 1.3 | 1.01 to 1.3 | ≤ 1 µM | 0.301 to 1 µM

— patent publication US20220324835A1 (Nurix Therapeutics, Inc., priority 2018, published 2022)
